Source: patent publication US11291670B2, “Therapeutic approaches for treating Alzheimer disease and related disorders through a modulation of angiogenesis” (PHARNEXT, priority 2008, dated 2022)

B1: BDNF: BDNF (50 ng/ml), positive control for neuroprotection (protein, UniProt P23560 19-247, looked up)
Neurotrophic factor BDNF …: APMKEANIRGQGGLAYPGVRTHGTLESVNGPKAGSRGLTSLADTFEHVIEELLDEDQKVRPNEENNKDADLYTSRVMLSSQVPLEPPLLFLLEEYKNYLDAANMSMRVRRHSDPARRGELSVCDSISEWVTAADKKTAVDMSGGTVTVLEKVPVSKGQLKQYFYETKCNPMGYTKEGCRGIDKRHWNSQCRTTQSYVRALTMDSKKRIGWRFIRIDTSCVCTLTIKRGR

What was measured:
Type in all cases: cell-based
[1] = system: rat primary cortical cells; assay: human Aβ1-42 toxicity, LDH release in rat primary cortical neurons; details: Aβ1-42 10 μM 24 h, 1 hr pre-treatment; FIG. 3
Description: Primary rat cortical neurons are cultured as described previously.
Briefly, Aβ1-42 peptide was reconstituted in define culture medium at 40 μM (mother solution) and was slowly shaked at +37° C. for 3 days in dark. The control medium was prepared in the same conditions.
After 10 days of neuron culture, drug was solved in culture medium (+0.1% DMSO) and then pre-incubated with neurons for 1 hour before the Aβ1-42 application (in a final volume per culture well of 100 μl). One hour after drug incubation, 100 μl of Aβ1-42 peptide was added to a final concentration of 10 μM diluted in presence of drug, in order to avoid further drug dilutions. Cortical neurons were intoxicated for 24 hours. Three separate cultures were performed per condition, 6 wells per condition.
BDNF (50 ng/ml) and Estradiol-β (100 and 150 nM) were used as positive control and reference compounds respectively.
The following conditions were assessed: • 1 CONTROL PLAQUE: 12 wells/condition • Negative Control: medium alone+0.1% DMSO • Intoxication: amyloid-β1-42 (10 μM) for 24 h • Positive control: BDNF (50 ng/ml) 1 hr followed by amyloid-β1-42 (10 μM) for 24 h • Reference compound: Estradiol (150 nM) 1 hr followed by amyloid-β1-42 (10 μM) for 24 h. • DRUG PLATE: 6 wells/condition • Negative Control: medium alone+0.1% DMSO • Intoxication: amyloid-β1-42 (10 μM) for 24 h • Drug 1: Drug 1-1 hr followed by amyloid-β1-42(10 μM) for 24 h • Drug 2: Drug 2-1 hr followed by amyloid-β1-42(10 μM) for 24 h Lactate Dehydrogenase (LDH) Activity Assay
This colorimetric assay for the quantification of cell toxicity is based on the measurement of lactate dehydrogenase (LDH) activity released from the cytosol of dying cells into the supernatant.
All values are expressed as mean±s.e.mean of the 3 cultures (n=6 per condition). Statistic analyses were done on the different conditions (ANOVA followed by the Dunnett's test when it was allowed, Statviewi software version 5.0).

[2] = system: Human Brain Microvascular Endothelial Cells (HBMEC); assay: human Aβ1-42 injury in HBMEC, total length of capillary network; details: for Effect on intoxication: total length of capillary network in beta-amyloid intoxicated HBMEC cultures: Aβ1-42 2.5 μM, combination versus each drug alone at the same concentrations, FIG. 4-6; for Prevention of Aβ1-42 intoxication in HBMEC (capillary network): drug pretreatment, FIG. 2B, 2C
Description: Human brain microvascular endothelial cerebral cells (HBMEC, ScienCell Ref: 1000, frozen at passage 10) were rapidly thawed in a waterbath at +37° C.
The control medium was prepared in the same conditions.
After 3 days, this human amyloid peptide was used on HBMEC at 2.5 μM diluted in control medium (optimal incubation time). The Aβ1-42 peptide was added 2 hours after HBMEC seeding on matrigel for 18 hours incubation.
Capillary Network Quantification
Per well, 2 pictures with 4× lens were taken using InCell Analyzer™ 1000 (GE Healthcare) in light transmission. All images were taken in the same conditions. Analysis of the angiogenesis networks was done using Developer software (GE Healthcare). The total length of capillary network was assessed.
All values are expressed as mean±s.e.mean of the 3 cultures (n=6 per condition). Statistic analyses were done on the different conditions performing an ANOVA followed by the Dunnett's test when it was allowed (Statview software version 5.0). The values (as %) inserted on the graphs show the amyloid toxicity evolution. Indeed, the amyloid toxicity was taken as the 100% and the test compound effect was calculated as a % of this amyloid toxicity.

[3] = system: rat endothelial cerebral cells; assay: Aβ25-35 peptide toxicity, LDH release from rat endothelial cerebral cells; details: FIG. 1; for Protective effect against beta-amyloid peptide toxicity on LDH release (prevention of Aβ25-35 intoxication): Aβ25-35 30 μM, 3 days, drug added 1 hour before; for Spontaneous cell death in the culture medium: rat endothelial cerebral cells, LDH release
Description: Primo culture of rat endothelial cerebral cells (Vect-Horus SAS, Marseille) is cultivated on passage 0. At confluence, endothelial cells are dissociated with trypsin EDTA (Pan Biotech Ref: P10-023100). Cells are seeded at a density of 25 000 cells/well in 96 well-plates (wells are coated with 30 μl of type I rat collagen at 1.5 mg/ml, Vect-Horus SAS, Marseille) and are cultured in MCBD 131 medium (M−131-500, Invitrogen) supplemented with 1% of microvascular growth supplement (MVGS, S-005-25, Invitrogen). Cells are cultured at 37° C. in a humidified air (95%)/CO2(5%) atmosphere. Half of the medium is changed every other day with fresh medium. After 4 days, drugs are added to the cell culture medium, at different concentrations, solved in DMSO 0.1% or water.
Cells are then intoxicated with 30 μM of β-amyloid (25-35; Sigma) together with drugs in the same culture medium. Cells are then intoxicated during 3 days.
For each culture, after 3 days of intoxication, the supernatant is collected and analyzed with Cytotoxicity Detection Kit (LDH, Roche Applied Sciences). This colorimetric assay for the quantification of cell death is based on the measurement of lactate dehydrogenase (LDH) activity released from the cytosol of damaged cells into the supernatant. The optic density (DO) is assessed by spectrophotometer at 492 nm wavelength by a multiscan apparatus (Thermo, Ref Ascent).
Results presented in FIG. 1 are extracted from two independent cultures, 6 wells per condition. All values are expressed as mean±s.e.m. A bilateral Student's t test analysis is performed on raw data. Results are expressed in percentage of cell viability, compared to the control (vehicle).
Drugs are incubated with rat primary cerebral endothelial cells one hour before Aβ25-35 30 μM intoxication that lasts 3 days.
Three days after this incubation, LDH release in the culture medium is quantified, reflecting the level of cell death.

| Molecule | Change of LDH release (Aβ1-42 amyloid injury) in rat primary cortical cells [1] [%] | Effect on intoxication: total length of capillary network in beta-amyloid intoxicated HBMEC cultures [2] | Prevention of Aβ1-42 intoxication in HBMEC (capillary network) [2] | Protective effect against beta-amyloid peptide toxicity on LDH release (prevention of Aβ25-35 intoxication) [3] | Spontaneous cell death in the culture medium [3] |
| --- | --- | --- | --- | --- | --- |
| NCC(CC(=O)O)c1ccc(Cl)cc1 (racemic) [Baclofen] | −86 | no significant effect | significantly prevented | – | – |
| NCC(CC(=O)O)c1ccc(Cl)cc1 (stereo not drawn) [Baclofen (−), Baclofen] | – | – | – | significantly prevented | – |
| Cc1oncc1C(=O)Nc1ccc(C(F)(F)F)cc1 [Leflunomide] | −62 | – | – | significantly prevented | decrease spontaneous cell death |
| C[C@@H]1CC(=O)NN=C1c1ccc(NN=C(C#N)C#N)cc1 [Levosimendan] | – | no significant effect | – | – | – |
| Cc1noc(NS(=O)(=O)c2ccc(N)cc2)c1C [Sulfisoxazole] | – | no significant effect | – | significantly prevented | – |
| CN(C/C=C/C#CC(C)(C)C)Cc1cccc2ccccc12 [Terbinafine] | – | no significant effect | significantly prevented | significantly prevented | decrease spontaneous cell death |
| B1 | −95 | – | – | – | – |
